# Measurements as given in PubChem BioAssay (NCI).
#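 In this assay, cells in 96-well plates receive the compound at five concentrations for 48 hours. Endpoints are linearly interpolated between the surrounding concentrations. Here, GI50 denotes the concentration required for 50% inhibition of growth. TGI: concentration producing complete growth inhibition.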
# Tests used:
# Test in all cases: NCI anticancer screen, dose series, 48 h
# SR leukemia = system: SR leukemia
# SF-295 CNS = system: SF-295 CNS
# EKVX NSCLC = system: EKVX NSCLC
# OVCAR-5 ovarian = system: OVCAR-5 ovarian
# HL-60(TB) leukemia = system: HL-60(TB) leukemia
# SN12C renal = system: SN12C renal
# LOX IMVI melanoma = system: LOX IMVI melanoma
# IGROV1 ovarian = system: IGROV1 ovarian
# NCI-H522 lung = system: NCI-H522 lung
# OVCAR-3 ovarian = system: OVCAR-3 ovarian
Structure (SMILES),TGI (SR leukemia) [µM],TGI (SF-295 CNS) [µM],TGI (EKVX NSCLC) [µM],TGI (OVCAR-5 ovarian) [µM],TGI (HL-60(TB) leukemia) [µM],TGI (SN12C renal) [µM],TGI (LOX IMVI melanoma) [µM],TGI (IGROV1 ovarian) [µM],TGI (NCI-H522 lung) [µM],TGI (OVCAR-3 ovarian) [µM],GI50 (SR leukemia) [µM],GI50 (SF-295 CNS) [µM],GI50 (EKVX NSCLC) [µM],GI50 (OVCAR-5 ovarian) [µM],GI50 (HL-60(TB) leukemia) [µM],GI50 (SN12C renal) [µM],GI50 (LOX IMVI melanoma) [µM],GI50 (IGROV1 ovarian) [µM],GI50 (NCI-H522 lung) [µM],GI50 (OVCAR-3 ovarian) [µM]
S=C(CSc1ccccc1)Nc1cccc2ccccc12,68.8,97.1,> 100,> 100,> 100,> 100,> 100,> 100,> 100,88.7,–,–,–,–,–,–,–,–,–,–
CCCCCCCCCCOC(=O)c1cc[n+](C)cc1,32.7,30.3,30.5,26.8,35.4,30.7,32.6,30.4,30,28.9,–,–,–,–,–,–,–,–,–,–
CCN(CC)c1ccc(N=Nc2ccc(-c3nc4cccn(C)c-4n3)cc2)cc1,14.8,19.4,84.9,26.3,4.79,19.3,6.42,25,19.9,23.1,–,–,–,–,–,–,–,–,–,–
COc1cc2c(c(OC)c1OC)-c1ccc(SC)c(=O)cc1C(CC(=O)Oc1cccc(F)c1)C2 (stereo not drawn),1.47,> 100,> 100,> 100,0.6,16.6,10.8,> 100,0.241,0.305,–,–,–,–,–,–,–,–,–,–
CC1(C)C(=O)C(=Cc2ccco2)C1=O,> 100,> 100,> 100,> 100,> 100,> 100,> 100,> 100,> 100,–,–,–,–,–,–,–,–,–,–,–
COc1cc2c3c(c1OC)C(=O)C=C3N(S(=O)(=O)c1ccc(C)cc1)CC2,> 100,> 100,> 100,> 100,> 100,> 100,> 100,> 100,38.6,> 100,–,–,–,–,–,–,–,–,–,–
NCCOc1ncccc1/C=C1\c2ccccc2-c2ccc([N+](=O)[O-])cc21,1.1,0.161,0.474,0.68,0.121,0.178,0.163,0.728,0.438,0.449,< 0.01,0.0246,0.116,0.211,0.0165,0.0284,0.0243,0.131,0.0684,0.181
OC(COc1ccccc1)CN1CCCCC1 (stereo not drawn),> 100,> 100,> 100,> 100,> 100,> 100,> 100,> 100,> 100,> 100,–,–,–,–,–,–,–,–,–,–
CC(=O)O[C@H](C[C@H](C(C)C)N(C)C(=O)[C@@H](NC(=O)[C@H]1CCCCN1C)C(C)C)c1cccc(C(=O)N[C@@H](Cc2ccccc2)C[C@H](C)C(=O)O)n1,> 25,> 5.29,> 25,> 25,0.0321,> 25,> 25,> 25,0.401,–,0.00429,0.0333,0.255,0.248,0.0069,0.044,0.0255,0.0287,0.0116,0.00707
